# Tested on: H358 (KRAS G12C mutant) cells
# Assay: Tumor cell proliferation inhibition experiment (Cell Titer-Glo luminescent cell viability assay)
# Conditions: Homo sapiens, NCI-H358, 72 h, read-out: NCI-H538 IC50(nm)
# Description: H358 (KRAS G12C mutant) cells were digested, centrifuged, and resuspended. Cell density was determined using a Scepter automated cell counter. The cells were diluted to a solution containing 44,000 cells per milliliter. The adjusted cell solution was added to 90 µL per well in a 96-well culture plate. The 96-well plate was placed in a 37°C, 5% CO2 incubator. After culturing the cells for 24 hours, different concentrations of the test compound were added. The cells were then cultured with the compound for 72 hours in the presence of 10% fetal bovine serum. The ATP content was measured using the Cell Titer-Glo luminescent cell viability assay kit (see manufacturer's instructions for details) to assess cell growth inhibition. In short, 30 µL of Cell Titer-Glo reagent was added to each well, and the plate was shaken for 10 minutes to induce cell lysis. The fluorescence signal was detected and recorded using a Fluoroskan Ascent FL (Thermo). The maximum signal value was obtained from cells treated with dimethyl sulfoxide for 72 hours. Minimum signal value was obtained from a single culture medium (zero cell count). Inhibition rate % = (maximum signal value - minimum signal value) / (maximum signal value - minimum signal value × 100%). Data was processed using GraphPadprism 5 software. IC50 values were calculated by fitting an S-shaped dose-response curve.
row,SMILES,IC50 [nM]
1,"C=C(F)C(=O)N1CCN(c2nc(OC[C@@]34CCCN3C[C@H](F)C4)nc3c2CS(=O)(=O)[C@@H](c2nc(N)cc(C)c2C(F)(F)F)C3)[C@@H](C)C1 [Compound 6B, 1-((3S)-4-((7R)-7-(6-amino-4-methyl-3-(trifluoromethyl)pyridin-2-yl)-2-(((2R,7AS)-2-fluorotetrahydro-1H-pyrrolazin-7a(5H)-yl)methoxy)-6,6-dioxo-7,8-dihydro-5H-thiaran[4,3-d]pyrimidin-4-yl)-3-methylpyrazin-1-yl)-2-fluoroprop-2-en-1-one]",< 10
2,"C=C(F)C(=O)N1CCN(c2nc(OC[C@@]34CCCN3C[C@H](F)C4)nc3c2CS(=O)(=O)C(c2c(F)c(N)cc(C)c2C(F)(F)F)C3)C[C@@H]1CC#N (stereo partly drawn) [Compound 4, 2-((2S)-4-(7-(3-amino-2-fluoro-5-methyl-6-(trifluoromethyl)phenyl)-2-(((2R,7AS)-2-fluorotetrahydro-1H-pyrrolazin-7a(5H)-yl)methoxy)-6,6-dioxo-7,8-dihydro-5H-thiaran[4,3-d]pyrimidin-4-yl)-1-(2-fluoroacryloyl)pyrazin-2-yl)acetonitrile]",< 10
3,"C=C(F)C(=O)N1CCN(c2nc(OC[C@@]34CCCN3C[C@H](F)C4)nc3c2CS(=O)(=O)[C@H](c2nc(N)cc(C)c2C(F)(F)F)C3)C[C@@H]1CC#N [Compound 8A, 2-((2S)-4-((7S)-7-(6-amino-4-methyl-3-(trifluoromethyl)pyridin-2-yl)-2-(((2R,7AS)-2-fluorotetrahydro-1H-pyrrolazin-7a(5H)-yl)methoxy)-6,6-dioxo-7,8-dihydro-5H-thiaran[4,3-d]pyrimidin-4-yl)-1-(2-fluoroacryloyl)pyrazin-2-yl)acetonitrile]",< 10
4,"C=CC(=O)N1CCN(c2nc(OC[C@@]34CCCN3C[C@H](F)C4)nc3c2CS(=O)(=O)[C@@H](c2nc(N)cc(C)c2C(F)(F)F)C3)[C@@H](C)C1 [Compound 5B, 1-((3S)-4-((7R)-7-(6-amino-4-methyl-3-(trifluoromethyl)pyridin-2-yl)-2-(((2R,7AS)-2-fluorotetrahydro-1H-pyrrolazin-7a(5H)-yl)methoxy)-6,6-dioxo-7,8-dihydro-5H-thiaran[4,3-d]pyrimidin-4-yl)-3-methylpyrazin-1-yl)prop-2-en-1-one]",< 10
5,"C=C(F)C(=O)N1CCN(c2nc(OC[C@@]34CCCN3C[C@H](F)C4)nc3c2CS(=O)(=O)C(c2nc(N)cc(C)c2C(F)(F)F)C3)C[C@@H]1CC#N (stereo partly drawn) [Compound 8, 2-((2S)-4-(7-(6-amino-4-methyl-3-(trifluoromethyl)pyridin-2-yl)-2-(((2R,7AS)-2-fluorotetrahydro-1H-pyrrolazin-7a(5H)-yl)methoxy)-6,6-dioxo-7,8-dihydro-5H-thiaran[4,3-d]pyrimidin-4-yl)-1-(2-fluoroacryloyl)pyrazin-2-yl)acetonitrile]",< 10
6,"C=CC(=O)N1CCN(c2nc(OC[C@@]34CCCN3C[C@H](F)C4)nc3c2CS(=O)(=O)C(c2c(F)c(N)cc(C)c2C(F)(F)F)C3)[C@@H](C)C1 (stereo partly drawn) [Compound 1, 1-((3S)-4-(7-(3-amino-2-fluoro-5-methyl-6-(trifluoromethyl)phenyl)-2-(((2R,7AS)-2-fluorotetrahydro-1H-pyrrolazin-7a(5H)-yl)methoxy)-6,6-dioxo-7,8-dihydro-5H-thiaran[4,3-d]pyrimidin-4-yl)-3-methylpyrazin-1-yl)prop-2-en-1-one]",< 10
7,"C=C(F)C(=O)N1CCN(c2nc(OC[C@@]34CCCN3C[C@H](F)C4)nc3c2CS(=O)(=O)[C@H](c2c(F)c(N)cc(C)c2C(F)(F)F)C3)[C@@H](C)C1 [Compound 2A, 1-((3S)-4-((7S)-7-(3-amino-2-fluoro-5-methyl-6-(trifluoromethyl)phenyl)-2-(((2R,7A S)-2-fluorotetrahydro-1H-pyrrolazin-7a(5H)-yl)methoxy)-6,6-dioxo-7,8-dihydro-5H-thiaran[4,3-d]pyrimidin-4-yl)-3-methylpyrazin-1-yl)-2-fluoroprop-2-en-1-one]",< 10
8,"C=C(F)C(=O)N1CCN(c2nc(OC[C@@]34CCCN3C[C@H](F)C4)nc3c2CS(=O)(=O)[C@@H](c2nc(N)cc(C)c2C(F)(F)F)C3)C[C@@H]1CC#N [Compound 8B, 2-((2S)-4-((7R)-7-(6-amino-4-methyl-3-(trifluoromethyl)pyridin-2-yl)-2-(((2R,7AS)-2-fluorotetrahydro-1H-pyrrolazin-7a(5H)-yl)methoxy)-6,6-dioxo-7,8-dihydro-5H-thiaran[4,3-d]pyrimidin-4-yl)-1-(2-fluoroacryloyl)pyrazin-2-yl)acetonitrile]",< 10
9,"C=CC(=O)N1CCN(c2nc(OC[C@@]34CCCN3C[C@H](F)C4)nc3c2CS(=O)(=O)C(c2nc(N)cc(C)c2C(F)(F)F)C3)C[C@@H]1CC#N (stereo partly drawn) [Compound 7, 2-((2S)-4-(7-(6-amino-4-methyl-3-(trifluoromethyl)pyridin-2-yl)-2-(((2R,7AS)-2-fluorotetrahydro-1H-pyrrolazin-7a(5H)-yl)methoxy)-6,6-dioxo-7,8-dihydro-5H-thiaran[4,3-d]pyrimidin-4-yl)-1-(acryloyl)pyrazin-2-yl)acetonitrile]",< 10
10,"C=C(F)C(=O)N1CCN(c2nc(OC[C@@]34CCCN3C[C@H](F)C4)nc3c2CS(=O)(=O)[C@H](c2nc(N)cc(C)c2C(F)(F)F)C3)[C@@H](C)C1 [Compound 6A, 1-((3S)-4-((7S)-7-(6-amino-4-methyl-3-(trifluoromethyl)pyridin-2-yl)-2-(((2R,7AS)-2-fluorotetrahydro-1H-pyrrolazin-7a(5H)-yl)methoxy)-6,6-dioxo-7,8-dihydro-5H-thiaran[4,3-d]pyrimidin-4-yl)-3-methylpyrazin-1-yl)-2-fluoroprop-2-en-1-one]",< 10
11,"C=CC(=O)N1CCN(c2nc(OC[C@@]34CCCN3C[C@H](F)C4)nc3c2CS(=O)(=O)[C@H](c2c(F)c(N)cc(C)c2C(F)(F)F)C3)[C@@H](C)C1 [Compound 1A, 1-((3S)-4-((7S)-7-(3-amino-2-fluoro-5-methyl-6-(trifluoromethyl)phenyl)-2-(((2R,7A S)-2-fluorotetrahydro-1H-pyrrolazin-7a(5H)-yl)methoxy)-6,6-dioxo-7,8-dihydro-5H-thiaran[4,3-d]pyrimidin-4-yl)-3-methylpyrazin-1-yl)prop-2-en-1-one]",< 10
12,"C=C(F)C(=O)N1CCN(c2nc(OC[C@@]34CCCN3C[C@H](F)C4)nc3c2CS(=O)(=O)[C@@H](c2c(F)c(N)cc(C)c2C(F)(F)F)C3)[C@@H](C)C1 [Compound 2B, 1-((3S)-4-((7R)-7-(3-amino-2-fluoro-5-methyl-6-(trifluoromethyl)phenyl)-2-(((2R,7A S)-2-fluorotetrahydro-1H-pyrrolazin-7a(5H)-yl)methoxy)-6,6-dioxo-7,8-dihydro-5H-thiaran[4,3-d]pyrimidin-4-yl)-3-methylpyrazin-1-yl)-2-fluoroprop-2-en-1-one]",< 10
13,"C=CC(=O)N1CCN(c2nc(OC[C@@]34CCCN3C[C@H](F)C4)nc3c2CS(=O)(=O)[C@H](c2c(F)c(N)cc(C)c2C(F)(F)F)C3)C[C@@H]1CC#N [Compound 3A, 2-((2S)-1-Acryloyl-4-((7S)-7-(3-amino-2-fluoro-5-methyl-6-(trifluoromethyl)phenyl)-2-(((2R,7AS)-2-fluorotetrahydro-1H-pyrrolazin-7a(5H)-yl)methoxy)-6,6-dioxo-7,8-di hydro-5H-thiaran[4,3-d]pyrimidin-4-yl)pyrazin-2-yl)acetonitrile]",< 10
14,"C=C(F)C(=O)N1CCN(c2nc(OC[C@@]34CCCN3C[C@H](F)C4)nc3c2CS(=O)(=O)C(c2nc(N)cc(C)c2C(F)(F)F)C3)[C@@H](C)C1 (stereo partly drawn) [Compound 6, 1-((3S)-4-(7-(6-amino-4-methyl-3-(trifluoromethyl)pyridin-2-yl)-2-(((2R,7AS)-2-fluorotetrahydro-1H-pyrrolazin-7a(5H)-yl)methoxy)-6,6-dioxo-7,8-dihydro-5H-thiaran[4,3-d]pyrimidin-4-yl)-3-methylpyrazin-1-yl)-2-fluoroprop-2-en-1-one]",< 10
15,"C=CC(=O)N1CCN(c2nc(OC[C@@]34CCCN3C[C@H](F)C4)nc3c2CS(=O)(=O)[C@@H](c2nc(N)cc(C)c2C(F)(F)F)C3)C[C@@H]1CC#N [Compound 7B, 2-((2S)-4-((7R)-7-(6-amino-4-methyl-3-(trifluoromethyl)pyridin-2-yl)-2-(((2R,7AS)-2-fluorotetrahydro-1H-pyrrolazin-7a(5H)-yl)methoxy)-6,6-dioxo-7,8-dihydro-5H-thiaran[4,3-d]pyrimidin-4-yl)-1-(acryloyl)pyrazin-2-yl)acetonitrile]",< 10
16,"C=CC(=O)N1CCN(c2nc(OC[C@@]34CCCN3C[C@H](F)C4)nc3c2CS(=O)(=O)[C@@H](c2c(F)c(N)cc(C)c2C(F)(F)F)C3)C[C@@H]1CC#N [Compound 3B, 2-((2S)-1-Acryloyl-4-((7R)-7-(3-amino-2-fluoro-5-methyl-6-(trifluoromethyl)phenyl) -2-(((2R,7AS)-2-fluorotetrahydro-1H-pyrrolazin-7a(5H)-yl)methoxy)-6,6-dioxo-7,8-dihydro-5H-thiaran[4,3-d]pyrimidin-4-yl)pyrazin-2-yl)acetonitrile]",< 10
17,"C=CC(=O)N1CCN(c2nc(OC[C@@]34CCCN3C[C@H](F)C4)nc3c2CS(=O)(=O)[C@H](c2nc(N)cc(C)c2C(F)(F)F)C3)[C@@H](C)C1 [Compound 5A, 1-((3S)-4-((7S)-7-(6-amino-4-methyl-3-(trifluoromethyl)pyridin-2-yl)-2-(((2R,7AS)-2-fluorotetrahydro-1H-pyrrolazin-7a(5H)-yl)methoxy)-6,6-dioxo-7,8-dihydro-5H-thiaran[4,3-d]pyrimidin-4-yl)-3-methylpyrazin-1-yl)prop-2-en-1-one]",< 10
18,"C=CC(=O)N1CCN(c2nc(OC[C@@]34CCCN3C[C@H](F)C4)nc3c2CS(=O)(=O)C(c2c(F)c(N)cc(C)c2C(F)(F)F)C3)C[C@@H]1CC#N (stereo partly drawn) [Compound 3, 2-((2S)-1-Acryloyl-4-(7-(3-amino-2-fluoro-5-methyl-6-(trifluoromethyl)phenyl)-2-(((2R,7AS)-2-fluorotetrahydro-1H-pyrrolazin-7a(5H)-yl)methoxy)-6,6-dioxo-7,8-dihydro-5H-thiaran[4,3-d]pyrimidin-4-yl)pyrazin-2-yl)acetonitrile]",< 10

# Reference: EP4818179A1, “PREPARATION FOR AND USE OF PYRIMIDO-THIOPYRANDIONE INHIBITOR FOR KRAS G12C MUTANT PROTEIN” (Ya Therapeutics Inc, priority 2024, dated 2025)
